Data as given in patent US20220127297A1, “Novel Antibacterial 3"-Derivatives Of 4,6-Disubstituted 2,5-Dideoxystreptamine Aminoglycoside Antibiotics” (AGILeBiotics B.V., priority 2018, published 2022).
Converted amounts (≈) assume the structure as drawn.

tested on: E. faecalis DSM 2570; experiment: MIC 50, broth micro-dilution, DSM strains; format: cell-based, Enterococcus faecalis; details: not given
Description: 3.2 Against Selected Bacteria of the ESKAPE Panel and Enterococcus faecalis (DSM Strains)
Tested reference compounds. Amikacin sulfate (Cat. No. 01693, Chem-Impex), Gentamicin sulfate (Cat. No. G4918, Sigma Aldrich).
Microbial strains. Enterococcus faecalis DSM 2570, Klebsiella pneumoniae DSM 26371, Acinetobacter baumannii DSM 105126, Enterobacter cloacae 3MRGN (clinical bronchial aspirate isolate).
Culture media and equipment. BBL™ Mueller Hinton Broth 2 (Lot. BCBW1143, Cat. No. 70192, Sigma); Trypcase Soy Blood-agar plates (Cat. No. 43001, Biomérieux); Cryoinstant (contains 15% glycerol; Cat. No. 822070ZA, VWR International); GasPak™ EZ Standard Incubation Container (Cat. No. 260671, Becton Dickinson); GasPak™ EZ Campy Container System Sachets (Cat. No. 260680, Becton Dickinson); 96-well deep well plate, 1 mL (Cat. No. 0030506.200, Eppendorf); Plate lid (Cat. No. 0030131.525, Eppendorf); 96-well plate, F-bottom (Cat. No. 260860, Nunc); Incubator (Sartorius Certomat BS-1); Laminar flow (Heraeus HS12); UV/VIS meter (Perkin Elmer Lambda Bio+); Platereader (Tecan Infinite M200 Pro).
Compound preparation. Compounds were prepared in MH2 media at a concentration of 5 mM and stored at 4° C. For testing, solutions of 128 μM were prepared in MH2, for tests against E. faecalis a solution of 512 μM was prepared. Out of these working solutions, 400 μL was transferred to wells in the first column of 96-well deep well plates. Each compound was transferred in triplicate. Plates were previously filled with 200 μL of MH2 media in all wells except for the wells in the first column. After compound and antibiotic addition, the compounds were serial two-fold diluted by transferring 200 μL from the first to the second column, then from the second to the third column and so on. Finally, 200 μL was removed from the last column.
Inoculum preparation. Microorganisms used were all revived from 15% glycerol storage in Croinstant tubes at −28° C. by plating them on blood agar plates. A. baumanni, and E. cloacae were grown aerobically at 37° C., E. faecalis was grown microaerophilically at 37° C., and K. pneumoniae was grown aerobically at 37° C. Plates were stored at 4° C. for up to two weeks, after which new plates were prepared from −28° C. A single colony was inoculated in MH2 media and grown at 37° C. and 200 rpm to an optical density (measured by UV/Vis spectroscopy) of 0.6-0.8 at 600 nm. Out of these suspensions, actual inoculums were prepared by diluting them to an optical density of 0.1 in MH2 media. From these inoculums, 200 μL was transferred to each well, resulting in a final compound concentration range of 64 μM-31.3 nM for, K. pneumoniae, A. baumanni, and E. cloacae, and 256 μM-125 nM for E. faecalis. Plates inoculated with E. faecalis were placed inside a GasPak™ Container System with GasPak™ Campy Container System sachets. All plates were incubated at 200 rpm for 18 h under the microorganism culturing conditions mentioned above.
MIC determination. After 18 h of growth, 200 μL was transferred to a 96-well F-bottom plate. The optical density was determined by a plate reader at 600 nm, with 10 s shaking before reading. Triplicate measurements were averaged, and a growth curve was plotted in Excel. The first column in which the growth reached half the value of maximum growth was determined as the MIC50 value for that particular compound.
MIC50. The MIC50 of a compound was assigned at which the bacterial growth reached half the value of maximum growth.

| SMILES | MIC50 [µM] |
| --- | --- |
| NCC[C@H](O)C(=O)N[C@@H]1C[C@H](N)[C@@H](O[C@H]2O[C@H](CN)[C@@H](O)[C@@H](O)[C@H]2O)[C@H](O)[C@H]1O[C@H]1O[C@H](CO)[C@@H](O)[C@H](N)[C@H]1O [ABX3002, 3′Epi-KanaA-AHB] | 128 (≈ 75 µg/mL) |
| NCCC(O)C(=O)NC1CC(N)C(OC2OC(CN)C(O)C(O)C2O)C(F)C1OC1OC(CO)C(O)C(N)C1O (stereo not drawn) [ABX3005, 3′Epi-KanaA-AHB-F] | 64 (≈ 37.6 µg/mL) |
| NCCC(O)C(=O)NC1CC(N)C(OC2OC(CN)C(O)C(O)C2N)C(O)C1OC1OC(CO)C(O)C(N)C1O (centres unmarked) [ABX4001, KanaB-AHB] | 32 to 64 |
| NCC[C@H](O)C(=O)N[C@@H]1CC(N)[C@@H](O[C@H]2OC(CN)[C@@H](O)[C@@H](O)C2N)[C@H](O)C1OC1O[C@H](CO)[C@@H](O)C(N)[C@H]1O (stereo partly drawn) [ABX4002, 3′Epi-KanaB-AHB] | 16 to 32 |
| NCC[C@H](O)C(=O)N[C@@H]1CC(N)[C@@H](O[C@H]2OC(CN)[C@@H](O)[C@@H](O)C2N)[C@H](F)C1OC1O[C@H](CO)[C@@H](O)C(N)[C@H]1O (stereo partly drawn) [ABX4003, 3′Epi-KanaB-AHB-F] | 64 (≈ 37.5 µg/mL) |
| N=C(N)NC1[C@@H](O)C(OC2[C@@H](F)[C@H](O[C@H]3OC(CN)[C@@H](O)[C@H](O)C3N)C(N)C[C@H]2NC(=O)[C@@H](O)CCN)O[C@H](CO)[C@H]1O (stereo partly drawn) [ABX4004, 3′epi-KanaB-AHB-F-Gua] | 16 to 32 |
| N=C(N)N[C@@H]1[C@@H](O)[C@@H](O[C@@H]2[C@@H](O)[C@H](O[C@H]3O[C@H](CN)[C@@H](O)[C@@H](O)[C@H]3N)[C@@H](N)C[C@H]2NC(=O)[C@@H](O)CCN)O[C@H](CO)[C@H]1O [ABX4005, 3′Epi-KanaB-AHB-Gua] | 32 to 64 |
| NCCC(O)C(=O)NC1CC(N)C(OC2OC(CN)C(O)C(O)C2N)C(F)C1OC1OC(CO)C(O)C(N)C1O (centres unmarked) [ABX4007, KanaB-AHB-F] | 32 to 64 |
| N=C(N)NC1[C@@H](O)C(OC2[C@@H](O)[C@H](O[C@H]3OC(CN)[C@@H](O)[C@H](O)C3N)C(N)C[C@H]2NC(=O)[C@@H](O)CCN)O[C@H](CO)[C@H]1O (some centres unmarked) [ABX4009, KanaB-AHB-Gua] | 64 to 128 |
| NCC[C@H](O)C(=O)N[C@@H]1CC(N)[C@@H](O[C@H]2OC(CN)[C@@H](O)CC2N)[C@H](O)C1OC1O[C@H](CO)[C@@H](O)C(N)[C@H]1O (some centres unmarked) [ABX5004, Tobra-AHB] | 32 (≈ 18.2 µg/mL) |
| N=C(N)NC1[C@@H](O)C(OC2[C@@H](O)[C@H](O[C@H]3OC(CN)[C@@H](O)CC3N)C(N)C[C@H]2NC(=O)[C@@H](O)CCN)O[C@H](CO)[C@H]1O (some centres unmarked) [ABX5005, Tobra-AHB-Gua] | 16 (≈ 9.77 µg/mL) |
| NCC[C@H](O)C(=O)N[C@@H]1CC(N)[C@@H](O[C@H]2OC(CN)[C@@H](O)CC2N)[C@H](F)C1OC1O[C@H](CO)[C@@H](O)C(N)[C@H]1O (some centres unmarked) [ABX5024, Tobra-AHB-F] | 16 to 32 |

same assay, conditions: Enterococcus faecalis, DSM2570, read-out: MIC 50

| SMILES | MIC50 [µM] |
| --- | --- |
| N=C(N)NC1[C@@H](O)C(OC2[C@@H](F)[C@H](O[C@H]3OC(CN)[C@@H](O)[C@H](O)C3O)C(N)C[C@H]2NC(=O)[C@@H](O)CCN)O[C@H](CO)[C@H]1O (stereo partly drawn) [ABX3003, 3′epi-KanaA-AHB-F-Gua] | 64 (≈ 40.3 µg/mL) |
| N=C(N)NC1[C@@H](O)C(OC2[C@@H](F)[C@H](O[C@H]3OC(CN)[C@@H](O)[C@H](O)C3N)C(N)C[C@H]2NC(=O)[C@@H](O)CCN)O[C@H](CO)[C@H]1O (some centres unmarked) [ABX4006, KanaB-AHB-F-Gua] | 16 to 32 (≈ 10.1 to 20.1 µg/mL) |
| N=C(N)NC1C(O)[C@@H](CO)OC(OC2C(F)[C@H](O[C@H]3OC(CN)[C@@H](O)CC3N)C(N)C[C@H]2NC(=O)[C@@H](O)CCN)[C@@H]1O (some centres unmarked) [ABX5006, Tobra-AHB-F-Gua] | 4 to 8 (≈ 2.45 to 4.9 µg/mL) |
| N=C(NCCN)NC1C(O)[C@@H](CO)OC(OC2C(F)[C@H](O[C@H]3OC(CN)[C@@H](O)CC3N)C(N)C[C@H]2NC(=O)[C@@H](O)CCN)[C@@H]1O (some centres unmarked) [ABX5020, Tobra-AHB-F-Gua-2-amino-ethyl] | 4 to 8 (≈ 2.62 to 5.25 µg/mL) |
| CC(C)(C)CCNC(=N)NC1[C@@H](O)C(OC2[C@@H](F)[C@H](O[C@H]3OC(CN)[C@@H](O)CC3N)C(N)C[C@H]2NC(=O)[C@@H](O)CCN)O[C@H](CO)[C@H]1O (some centres unmarked) [ABX5025, Tobra-AHB-F-Gua 2-tBu-ethyl] | 16 (≈ 11.1 µg/mL) |
| N=C(NC[C@@H]1CCCN1)NC1[C@@H](O)C(OC2[C@@H](F)[C@H](O[C@H]3OC(CN)[C@@H](O)CC3N)C(N)C[C@H]2NC(=O)[C@@H](O)CCN)O[C@H](CO)[C@H]1O (stereo partly drawn) [ABX5026, Tobra-AHB-F-Gua (S) pyrrolidine-2-yl-methyl] | 32 (≈ 22.3 µg/mL) |
| N=C(NCC1CC1)NC1[C@@H](O)C(OC2[C@@H](F)[C@H](O[C@H]3OC(CN)[C@@H](O)CC3N)C(N)C[C@H]2NC(=O)[C@@H](O)CCN)O[C@H](CO)[C@H]1O (some centres unmarked) [ABX5027, Tobra-AHB-F-Gua cyclopropylmethyl] | 32 (≈ 21.3 µg/mL) |
| N=C(NCCO)NC1[C@@H](O)C(OC2[C@@H](F)[C@H](O[C@H]3OC(CN)[C@@H](O)CC3N)C(N)C[C@H]2NC(=O)[C@@H](O)CCN)O[C@H](CO)[C@H]1O (some centres unmarked) [ABX5029, Tobra-AHB-F-Gua 2-hydroxy-ethyl] | 64 (≈ 42 µg/mL) |
| N=C(NCCCN)NC1[C@@H](O)C(OC2[C@@H](F)[C@H](O[C@H]3OC(CN)[C@@H](O)CC3N)C(N)C[C@H]2NC(=O)[C@@H](O)CCN)O[C@H](CO)[C@H]1O (some centres unmarked) [ABX5030, Tobra-AHB-F-Gua-3-amino-propyl] | 32 (≈ 21.4 µg/mL) |
| CNCCNC(=N)NC1[C@@H](O)C(OC2[C@@H](F)[C@H](O[C@H]3OC(CN)[C@@H](O)CC3N)C(N)C[C@H]2NC(=O)[C@@H](O)CCN)O[C@H](CO)[C@H]1O (some centres unmarked) [ABX5038, Tobra-AHB-F-Gua 2-(methylamino)ethyl] | 16 (≈ 10.7 µg/mL) |
| N=C(NC[C@@H]1CCNC1)NC1[C@@H](O)C(OC2[C@@H](F)[C@H](O[C@H]3OC(CN)[C@@H](O)CC3N)C(N)C[C@H]2NC(=O)[C@@H](O)CCN)O[C@H](CO)[C@H]1O (stereo partly drawn) [ABX5039, Tobra-AHB-F-Gua (R) pyrrolidine-3-ylmethyl] | 16 (≈ 11.1 µg/mL) |
| N=C(NC[C@@H]1CNCCO1)NC1[C@@H](O)C(OC2[C@@H](F)[C@H](O[C@H]3OC(CN)[C@@H](O)CC3N)C(N)C[C@H]2NC(=O)[C@@H](O)CCN)O[C@H](CO)[C@H]1O (stereo partly drawn) [ABX5040, Tobra-AHB-F-Gua (S) morpholin-2-yl methyl] | 16 (≈ 11.4 µg/mL) |
| N=C(NCCCO)NC1[C@@H](O)C(OC2[C@@H](F)[C@H](O[C@H]3OC(CN)[C@@H](O)CC3N)C(N)C[C@H]2NC(=O)[C@@H](O)CCN)O[C@H](CO)[C@H]1O (some centres unmarked) [ABX5041, Tobra-AHB-F-Gua 3-hydroxy-propyl] | 4 to 8 (≈ 2.68 to 5.37 µg/mL) |
| N=C(NC[C@H]1CCNC1)NC1[C@@H](O)C(OC2[C@@H](F)[C@H](O[C@H]3OC(CN)[C@@H](O)CC3N)C(N)C[C@H]2NC(=O)[C@@H](O)CCN)O[C@H](CO)[C@H]1O (stereo partly drawn) [ABX5042, Tobra-AHB-F-Gua (S) pyrrolidine-3-ylmethyl] | 8 (≈ 5.57 µg/mL) |
| N=C(NC[C@H]1CNCCO1)NC1[C@@H](O)C(OC2[C@@H](F)[C@H](O[C@H]3OC(CN)[C@@H](O)CC3N)C(N)C[C@H]2NC(=O)[C@@H](O)CCN)O[C@H](CO)[C@H]1O (stereo partly drawn) [ABX5043, Tobra-AHB-F-Gua (R) morpholin-2-yl methyl] | 16 (≈ 11.4 µg/mL) |
| N=C(N)NC1[C@@H](O)C(OC2[C@@H](F)[C@H](O[C@H]3OC(CNCCO)[C@@H](O)CC3N)C(N)C[C@H]2NC(=O)[C@@H](O)CCN)O[C@H](CO)[C@H]1O (some centres unmarked) [ABX5045, 6N-2-hydroxy-ethyl-Tobra-AHB-F-Gua] | 8 to 16 (≈ 5.25 to 10.5 µg/mL) |
| N=C(NCC1CCCO1)NC1[C@@H](O)C(OC2[C@@H](F)[C@H](O[C@H]3OC(CN)[C@@H](O)CC3N)C(N)C[C@H]2NC(=O)[C@@H](O)CCN)O[C@H](CO)[C@H]1O (some centres unmarked) [ABX5046, Tobra-AHB-F-Gua tetrahydrofuran-2-yl methyl] | 8 to 16 (≈ 5.57 to 11.1 µg/mL) |
